# Source: US20110071289A1, “AMINOPYRAZOLE AMIDE DERIVATIVE” (DAINIPPON SUMITOMO PHARMA CO., LTD., priority 2007, published 2011)
# Key:
# [1] = system: cortisone reducing activity of cultured human adipocytes; test: Inhibitory activity assay for cortisone reducing activity of cultured human adipocytes; format: cell-based; settings: 100 nM [1,2-3H] cortisone, 37° C. for 3 hours
# Experimental: Normal human proadipocytes (HPrAD-vis, Cambrex) were inoculated on 48 well plate, and differentiated according to a protocol attached to a kit. Media for cells on 9-11th day of differentiation were changed to 0.2 ml of D-MEM media (GIBCO, Inc.) containing 100 nM [1,2-^3H] cortisone (1 μCi/well, Muromati Yakuhin), 0.5% DMSO, test compound (DMSO only for test compound-addition districts and test compound additive-free districts). After incubation at 37° C. for 3 hours, all media were collected. As background districts, cell additive-free media were used. Media were mixed with ethyl acetate (0.1 ml) in Eppendorf tube. The mixture was vortexed, and then centrifuged at 5,000 rpm×1 minute at room temperature to separate ethyl acetate (upper layer). Ethyl acetate (10 μl) was spotted on aluminum plate for thin-layer chromatography (silica gel 60 angstrom, Merck, referred to as TLC plate hereinafter). To a sealed vessel was added chloroform/methanol (90:10, v/v) as an eluent, and TLC plate was developed and then dried at room temperature. To the dried TLC plate was exposed an imaging plate (TR-2040, FUJIFILM) over 16 or more hours. After exposure, the imaging plate was analyzed by Bioimage analyzer (BAS2500, FUJIFILM), and [^3H] radioactivity of the spot corresponding to cortisol on TLC plate was determined Inhibitory activities of cortisone reducing activities of test compounds were calculated as below.
# (Inhibitory activity (%))=100×((Test compound additive-free districts)−(Test compound-addition districts))/((Test compound additive-free districts)−(Background districts))
# IC50 values were calculated by a linear regression of logarithmic values of analyte concentrations and inhibitory activity values using 2-point data wherein inhibitory activities indicated values around 50%. […] IC50 values for human adipocyte cortisone reducing activities of the following inventive compounds were determined
# human 11βHSD1 = target: T1, human 11βHSD1 (Homo sapiens, UniProt P28845); test: Measurement of human 11βHSD1 inhibitory activity (HTRF cortisol detection); format: biochemical; settings: human 11βHSD1 enzyme fraction, 20 nM cortisone, 37° C. for 2 hours
# T1 construct: made in house; host or cells: CHO-K1 cells stably transfected with pCMV-Tag 2B plasmid; pellet after ultracentrifugation at 100,000 g
# T1 sequence (P28845 whole entry): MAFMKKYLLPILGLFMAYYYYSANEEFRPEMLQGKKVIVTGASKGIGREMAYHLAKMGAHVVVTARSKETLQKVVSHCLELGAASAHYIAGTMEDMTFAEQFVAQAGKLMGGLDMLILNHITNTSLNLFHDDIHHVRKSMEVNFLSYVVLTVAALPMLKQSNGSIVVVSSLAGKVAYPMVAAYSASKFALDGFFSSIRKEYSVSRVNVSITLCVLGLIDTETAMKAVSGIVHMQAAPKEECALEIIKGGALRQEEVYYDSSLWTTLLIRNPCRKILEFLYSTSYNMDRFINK
# From the text: A sequence containing ORF of human 11βHSD1 gene (GenBank Accession No. BC012593) was amplified according to PCR technique which was one of conventional methods, and digested by a restriction enzyme BamHI/XhoI. 2 kb of DNA fragments obtained from agarose gels were inserted into pCMV-Tag 2B plasmids (Stratagene) according to a conventional method. The plasmids prepared in Escherichia coli in large amounts were transformed into CHO-K1 cells, and then cells stably expressing human 11βHSD1 genes were selected by medium containing 400 μg/ml G-418 solution (GIBCO, Inc.) containing media. The resulting stably expressing cells were incubated up to −90% confluent in F-12 medium (Nacalai Tesque, Inc.) containing 10% charcoal-dextran treated fetal bovine serum (Hyclone), 1% penicillin-streptomycin (Nacalai Tesque, Inc.) and 400 μg/ml G-418. The resultant cells were treated by tripsin, and the obtained cells were suspended in the above media (1 L) and seeded in cell stack 10 chamber (Corning) in total amounts. The mixture was incubated in CO2 incubator (5% CO2, 37° C.) for 4-5 days, and then treated by tripsin. Total amounts of the obtained cells were washed with PBS buffer (GIBCO, Inc.), and stored at −80° C. […]
# A test compound and cortisone (Sigma) was diluted with buffer (50 mM HEPES pH7.3, 150 mM NaCl, 1 mM EDTA) to prepare a substrate solution containing a test compound (50 mM HEPES pH7.3, 150 mM NaCl, 1 mM EDTA, 1 mM NADPH, 20 nM cortisone) (2% DMSO solution), and the solution was added to 384-well low-volume plate (manufactured by Greiner, No. 3782086) in 4 μl/well. […] After the enzyme reaction, the produced cortisol was detected by Homogeneous time-resolved fluorescence (HTRF) to determine enzyme inhibitory activities. […] A fluorescence intensity was determined by 2120 EnVision® Multilabel counter (PerkinElmer) to calculate enzyme inhibitory activities from 2 wavelengths of fluorescence intensity ratios (665 nm/620 nm).
# Each inhibitory activity (%) of each test compound was calculated from the average value (%) of inhibitory activities of 4 wells under the same condition. […]
IC50 ([1]; Adipocyte),IC50 (human 11βHSD1),Structure (SMILES),further results
8.7 nM,–,"CC(C)N(C)c1cc(C(=O)N[C@H]2C3CC4CC2C[C@](C(N)=O)(C4)C3)nn1C [Example 8, N-[(E)-5-Carbamoyladamantan-2-yl]-5-[isopropyl(methyl)amino]-1-methyl-1H-pyrazole-3-carboxamide]",–
–,39 nM,"CN(CC1CC1)c1cc(C(=O)N[C@H]2C3CC4CC2C[C@](C(N)=O)(C4)C3)nn1C [Example 15, N-[(E)-5-Carbamoyladamantan-2-yl]-5-[(cyclopropylmethyl)(methyl)amino]-1-methyl-1H-pyrazole-3-carboxamide]",–
–,25 nM,"CN(c1cc(C(=O)N[C@H]2C3CC4CC2C[C@](C(N)=O)(C4)C3)nn1C)C1CCC1 [Example 19, N-[(E)-5-Carbamoyladamantan-2-yl]-5-[cyclobutyl(methyl)amino]-1-methyl-1H-pyrazole-3-carboxamide]",–

# More lines, now with the values behind:
Structure (SMILES),IC50 ([1]; Adipocyte),IC50 (human 11βHSD1),further results
"CN(C)c1c(Cl)c(C(=O)N[C@H]2C3CC4CC2C[C@](C(N)=O)(C4)C3)nn1C [Example 11, N-[(E)-5-Carbamoyladamantan-2-yl]-4-chloro-5-(dimethylamino)-1-methyl-1H-pyrazole-3-carboxamide]",–,32 nM,–
"COc1ccc(C2(N(C)c3c(Cl)c(C(=O)NC4C5CC6CC4CC(C(N)=O)(C6)C5)nn3C)CC2)cc1 (stereo not drawn) [Example 22, N-[(E)-5-(Aminocarbonyl)-2-adamantyl]-4-chloro-5-[[1-(4-methoxyphenyl)cyclopropyl](methyl)amino]-1-methyl-1H-pyrazole-3-carboxamide]",–,–,IC50 [1]: 1.8 nM
"CN(CC1CCN(c2ccc(C#N)cn2)CC1)c1c(Cl)c(C(=O)N[C@H]2C3CC4CC2C[C@](O)(C4)C3)nn1C [Example 166, 4-Chloro-5-[{[1-(5-cyanopyridin-2-yl)piperidin-4-yl]methyl}(methyl)amino]-N-[(E)-5-hydroxy-2-adamantyl]-1-methyl-1H-pyrazole-3-carboxamide]",6.4 nM,–,–
